Columns and labels:
[1] = 101 kPa, Liquid, Vibrating tube method
[2] = xn = mol fraction of the nth substance listed; details: 101 kPa, Liquid, Vibrating tube method

CCCCO [butan-1-ol]
[1]
Details | mass density [kg/m3]
293.15 K | 809.78
298.15 K | 806.05
303.15 K | 802.03
313.15 K | 794.12

CCCCO [butan-1-ol] + CC(C)NC(C)C
[2], x2 = 0
Details | mass density [kg/m3]
293.15 K | 809.78
298.15 K | 806.05
303.15 K | 802.03
313.15 K | 794.12

CC(C)NC(C)C [diisopropylamine]
[1]
Details | mass density [kg/m3]
293.15 K | 720.89
298.15 K | 715.35
303.15 K | 710.23
313.15 K | 699.71

CC(C)NC(C)C [diisopropylamine] + CCCCCO
mass density [kg/m3], [2]
Details | 293.15 K | 298.15 K | 303.15 K | 313.15 K
x1 = 0.0815 | 809.89 | 805.62 | 801.64 | 794.78
x1 = 0.16 | 804.18 | 799.78 | 795.61 | 788.52
x1 = 0.2392 | 797.77 | 793.23 | 788.98 | 780.98
x1 = 0.35 | 787.88 | 783.17 | 778.74 | 769.75
x1 = 0.4401 | 779.23 | 774.43 | 769.93 | 760.48
x1 = 0.5597 | 767.21 | 762.29 | 757.69 | 748.46
x1 = 0.6498 | 757.9 | 752.85 | 748.14 | 739.55
x1 = 0.7356 | 748.9 | 743.79 | 738.95 | 730.94
x1 = 0.8497 | 736.82 | 731.52 | 726.57 | 718.73
x1 = 0.9379 | 727.48 | 722.03 | 716.97 | 708.08
x1 = 1 | 720.89 | 715.35 | 710.23 | 699.71

CC(C)NC(C)C [diisopropylamine] + CCCCO
mass density [kg/m3], [2]
Details | 293.15 K | 298.15 K | 303.15 K | 313.15 K
x1 = 0.0815 | 804.64 | 800.71 | 796.89 | 789.72
x1 = 0.1611 | 798.64 | 794.65 | 790.84 | 783.86
x1 = 0.2404 | 792.1 | 788 | 784.11 | 777.07
x1 = 0.3496 | 782.52 | 778.41 | 774.3 | 767.06
x1 = 0.44 | 774.49 | 770.21 | 766.09 | 758.54
x1 = 0.56 | 763.71 | 759.1 | 754.95 | 747.2
x1 = 0.6499 | 755.59 | 750.61 | 746.56 | 738.57
x1 = 0.74 | 747.35 | 741.97 | 737.86 | 729.62
x1 = 0.8484 | 736.91 | 731.98 | 727 | 718.21
x1 = 0.9384 | 727.64 | 721.96 | 717.35 | 707.61
x1 = 1 | 720.89 | 715.35 | 710.23 | 699.71

CC(C)NC(C)C [diisopropylamine] + CCCO
mass density [kg/m3], [2]
Details | 293.15 K | 298.15 K | 303.15 K | 313.15 K
x1 = 0.0813 | 796.38 | 793.94 | 791.19 | 784.48
x1 = 0.1608 | 791.55 | 788.58 | 785.66 | 779.04
x1 = 0.2398 | 785.63 | 782.57 | 779.21 | 772.45
x1 = 0.3497 | 777.13 | 773.41 | 769.55 | 762.48
x1 = 0.4398 | 769.26 | 765.67 | 761.55 | 754.19
x1 = 0.5546 | 760.03 | 755.85 | 751.48 | 743.87
x1 = 0.6487 | 752.32 | 747.75 | 743.28 | 735.48
x1 = 0.7383 | 744.72 | 740.05 | 735.49 | 727.35
x1 = 0.8491 | 735.16 | 730.09 | 725.47 | 716.62
x1 = 0.9395 | 726.79 | 721.53 | 716.61 | 706.82
x1 = 1 | 720.89 | 715.35 | 710.23 | 699.71

CC(C)NC(C)C [diisopropylamine] + CCO
mass density [kg/m3], [2]
Details | 293.15 K | 298.15 K | 303.15 K | 313.15 K
x1 = 0.0808 | 788.65 | 783.48 | 777.89 | 767.17
x1 = 0.1601 | 784.61 | 779.32 | 773.64 | 762.87
x1 = 0.2386 | 779.98 | 774.56 | 768.86 | 758.28
x1 = 0.3497 | 772.63 | 767.12 | 761.5 | 751.13
x1 = 0.4411 | 766.01 | 760.55 | 755.15 | 744.76
x1 = 0.5532 | 757.4 | 752.37 | 747.04 | 736.47
x1 = 0.65 | 749.49 | 744.83 | 739.74 | 728.89
x1 = 0.7395 | 742.16 | 737.7 | 732.71 | 721.68
x1 = 0.8478 | 733.27 | 728.73 | 723.74 | 712.63
x1 = 0.9385 | 725.8 | 720.86 | 715.91 | 704.95
x1 = 1 | 720.89 | 715.35 | 710.23 | 699.71

CC(C)NC(C)C [diisopropylamine] + CO
mass density [kg/m3], [2]
Details | 293.15 K | 298.15 K | 303.15 K | 313.15 K
x1 = 0.0808 | 789.98 | 785.35 | 779.68 | 768.72
x1 = 0.1599 | 786.75 | 781.66 | 776.01 | 764.23
x1 = 0.2399 | 782.33 | 777.02 | 771.2 | 758.93
x1 = 0.3477 | 774.9 | 769.38 | 763.6 | 751.16
x1 = 0.4444 | 767.44 | 761.76 | 756.06 | 744.11
x1 = 0.5563 | 757.92 | 752.29 | 746.8 | 735.46
x1 = 0.6507 | 749.84 | 744.22 | 738.78 | 727.96
x1 = 0.7388 | 742.2 | 736.62 | 731.3 | 720.89
x1 = 0.8482 | 732.94 | 727.37 | 722.19 | 712.05
x1 = 0.94 | 725.56 | 719.98 | 714.87 | 704.62
x1 = 1 | 720.89 | 715.35 | 710.23 | 699.71

CCO [ethanol]
[1]
Details | mass density [kg/m3]
293.15 K | 792.17
298.15 K | 786.71
303.15 K | 781.3
313.15 K | 771.14

CCO [ethanol] + CC(C)NC(C)C
[2], x2 = 0
Details | mass density [kg/m3]
293.15 K | 792.17
298.15 K | 786.71
303.15 K | 781.3
313.15 K | 771.14

CO [methanol]
[1]
Details | mass density [kg/m3]
293.15 K | 791.72
298.15 K | 787.35
303.15 K | 782.24
313.15 K | 772.73

CO [methanol] + CC(C)NC(C)C
[2], x2 = 0
Details | mass density [kg/m3]
293.15 K | 791.72
298.15 K | 787.35
303.15 K | 782.24
313.15 K | 772.73

CCCCCO [pentan-1-ol]
[1]
Details | mass density [kg/m3]
293.15 K | 814.8
298.15 K | 810.82
303.15 K | 807.07
313.15 K | 799.4

CCCCCO [pentan-1-ol] + CC(C)NC(C)C
[2], x2 = 0
Details | mass density [kg/m3]
293.15 K | 814.8
298.15 K | 810.82
303.15 K | 807.07
313.15 K | 799.4

CCCO [propan-1-ol]
[1]
Details | mass density [kg/m3]
293.15 K | 800.03
298.15 K | 797.81
303.15 K | 795.05
313.15 K | 787.95

CCCO [propan-1-ol] + CC(C)NC(C)C
[2], x2 = 0
Details | mass density [kg/m3]
293.15 K | 800.03
298.15 K | 797.81
303.15 K | 795.05
313.15 K | 787.95

Reference: the NIST ThermoML archive (doi:10.1016/j.tca.2011.05.006)
